Data: US11319311B2, “Crystalline forms of Actinomycin D for treatment of cancer” (TRANSGENEX NANOBIOTECH, INC., priority 2018, dated 2022)
Where two headings read alike, the source gives them in different places.

Legend:
U-2 OS = assay: Monolayer cell culture IC50 (CellTiter-Glo viability), U-2 OS; assay type: cell-based; settings: Sarcoma, U-2 OS, monolayer, 72 hours treatment, average of three replications
Description: Cancer cell lines listed in Table 1 were subjected for testing anti-cancer potency or the half maximal inhibitory concentration (IC50) of the D-Actinomycin (DACT) molecular complexes.
The SK-ES-1, U-2 OS, and SAOS-2 cells were cultured in a growth medium that is ATCC-formulated McCoy's 5a Medium Modified, Catalog No. 30-2007. The PC-3, PANC-1, SK-Mel-5, A549, H460, and H1299 were cultured in a growth medium that is ATCC-formulated Dulbecco's Modified Eagle's Medium (DMEM), Catalog No. 30-2002. The cells were seeded on 96-well microtiter plates with 3500 cells per well and cultured in an incubator (Model 3120, Thermo Scientific, USA) with a constant temperature at 37° C. and 5% carbon dioxide (CO2) gas for 24 hours.
The new DACT-molecular complexes were made into a series with concentration of 200 nM to 40 nM, 8 nM, 1.6 nM, 0.32 nM, and 0.064 nM. 100 μl of each solution was then added into each well to bring out the final concentration of the drug treatment at 100 nM, 20 nM, 4 nM, 0.8 nM, 0.16 nM, or 0.032 nM, respectively.
The treated cells in the 96 well plate was then further cultured at the same conditions for 72 hours and then subjected for a final cell viability measurement. The measurement used a homogeneous method to determine the number of metabolically active cells presented in each of treatments. A testing reagent for the measurement is a mixture solution of the CellTiter-Glo® 2.0 reagent (CTG, Promega Cat #G9243, USA) and growth medium in 1:1 ratio in this respect.
The 96-well plate with the new molecular complex treated cells was taken out from incubator after the 72 hours of incubation, and the treatment solution in each well was removed using a multichannel pipette, and 100 μl of the testing reagent were added into each well. The plate was then placed on a plate shaker for 15 min. The plate was covered with a piece of aluminum foil to protect the CTG luminescence during the shaking time.
Then 90 μl of the 100 μl testing reagent were transferred into an opaque-walled 96-well plate for the CTG luminescence reading on a plate reader (SynergyH4 Hybrid Reader, Biotek, USA). The luminescence intensity of each treatment was positively correlated with the number of cells survived during the treatments.
All the treatment data was normalized by comparing with the control samples that had only growth medium without any molecular complexes. The half maximal inhibitory concentration (IC50) data was calculated using the nonlinear regression model and dose-responses (inhibition) curve built in the software. Each of treatments was performed in three replications each time and repeated three times for validation. The IC50 average […] (Avg) and standard deviation (STDV) were calculated based on the three replications.

[1] = test system: human sarcoma cell line SK-ES-1; assay: Tumor sphere formation assay; assay type: cell-based
Excerpt: Cancer stem cells (CSCs) are defined as a small subset of cells within a tumor with the ability to self-renew and often drive tumor progression and recurrence after chemotherapy treatment (Xiaochen Zhou, et al. 2015. A Reliable Parameter to Standardize the Scoring of Stem Cell Spheres. PLOS One 10(5); e0127348). It is important to study the responses of cancer stem cells or the tumors treated with the new molecular complexes. We have assessed cancer stem cells (CSCs) growth using tumor sphere formation assay, which involves culturing cancer cells in low attachment plates in serum free media. Sphere size and diameter was measured using Image) software and statistical analysis was performed using Graph Pad Prism Software.
The stem cell culture medium is prepared for 500 ml (250 ml of Dulbecco's Modified Eagle Medium (DMEM) (ATCC® 30-2002) plus 250 ml of F-12K medium (ATCC® 30-2004)) using 20 ng/ml epidermal growth factor, 10 ng/ml basic fibroblast growth factor, 5 μg/ml insulin and 0.4% Bovine Serum Albumin. All preparation methods known to the person skilled in the art.
The cancer cell line used in this study was human sarcoma cell line SK-ES-1. The cells were seeded in a density of 200 per well per 200 μl in a 96-well Ultra-Low Attachment plate (Corning, Cat #3474, USA), this plate is specially treated for stem cell growth or tumor culture. On the day 1 of seeding, 100 μl of cell solution was added into the plate. […]
On the day 6 of seeding, 10 μl of NucBlue Live Cell Stain ReadyProbes (Invitrogen Cat #R37605, USA) were added into each well for staining to visualize the live cells under the blue fluorescent light. […] Then the plate was brought to the Keyence imaging device (Keyence America, All-in-One Fluorescence Microscope BZ-X800, USA) for image scanning. […]
The sum of sphere image area of every individual sphere, with diameter over 50 μm, in each well was calculated. […] The sphere image area was calculated based on the sum area of spheres with diameter over 50 μm in each treatment well, and significance was declared at P<0.05 for the bars indicated by *, and P<0.001 by **. […]

CCCOC(=O)c1ccc(O)cc1.Cc1c2oc3c(C)ccc(C(=O)NC4C(=O)NC(C(C)C)C(=O)N5CCCC5C(=O)N(C)CC(=O)N(C)C(C(C)C)C(=O)OC4C)c3nc-2c(C(=O)NC2C(=O)NC(C(C)C)C(=O)N3CCCC3C(=O)N(C)CC(=O)N(C)C(C(C)C)C(=O)OC2C)c(N)c1=O (stereo not drawn) [DACT-propylparaben]
IC50 (U-2 OS; Test I, read-out: IC50 Test (I) Avg): 3.63 nM
IC50 (U-2 OS; Test II, read-out: IC50 Test (II) Avg): 3.85 nM
IC50 (U-2 OS; Test III, read-out: IC50 Test (III) Avg): 1.79 nM
sphere area ([1]; SK-ES-1 spheres with diameter over 50 μm, day 6 of seeding, compared with pure parent molecule DACT): noticeable reduction in sphere area
tumor spheres size (SSS) ([1]; compared with that of the parent molecule): reduced tumor spheres size (SSS)
tumor sphere formation efficiency (SFE) ([1]; compared with the parent molecule): reduced tumor sphere formation efficiency (SFE)
